Earlier results on one compound are cited in PubChem BioAssay AID1259409 (Chemical Carcinogenesis Research Information System (CCRIS), 2018).

For the data set, the system named is rodent chemically induced tumor inhibition, incidence and multiplicity. Briefly: CCRIS tumor inhibitor studies.

Take `CC1=C(/C=C/C(C)=C/C=C/C(C)=C/C(=O)Nc2ccc(O)cc2)C(C)(C)CCC1`: the “tumour outcome (control, treated, inhibition, significance)” value is, setting by setting: (Carcinogen: N-METHYL-N-NITROSOUREA, 684-93-5, Dose [Inhibitor]: 2 MMOL/KG DIET DAILY STARTING 12 D AFTER CARCINOGEN TREATMENT THROUGH ABOUT 8 MO AFTER CARCINOGEN DOSE (STUDY DURATION:, Route [Inhibitor]: ORAL, Species: RAT, Strain/Sex: F344/MALE, Target Tissue: Type of Lesion: COLON: ADENOMA, Dose [Carcinogen]: 2.5 MG 1/WK FOR 2 WK, Promoter: NONE USED) 16/39 (41%), 11/30 (37%), 10%, not significant; (Carcinogen: N-METHYL-N-NITROSOUREA, 684-93-5, Dose [Inhibitor]: 587 MG/KG DIET FROM D 7-20 AFTER CARCINOGEN ADMINISTRATION THEN REDUCED TO 391 MG/KG DIET FOR REMAINDER OF STUDY (STUDY, Route [Inhibitor]: ORAL, Species: RAT, Strain/Sex: SPRAGUE-DAWLEY/FEMALE, Target Tissue: Type of Lesion: MAMMARY GLAND: ADENOCARCINOMA, Dose [Carcinogen]: 20 MG/KG BW ONCE, Promoter: NONE USED) 64%, 50%, 22%, not significant; (Carcinogen: N-METHYL-N-NITROSOUREA, 684-93-5, Dose [Inhibitor]: 587 MG/KG IN DIET FROM D 7-20 AFTER CARCINOGEN DOSE THEN REDUCED TO 391 MG/KG IN DIET FOR REMAINDER OF STUDY (STUDY DURA, Route [Inhibitor]: ORAL, Species: RAT, Strain/Sex: SPRAGUE-DAWLEY/FEMALE, Target Tissue: Type of Lesion: MAMMARY GLAND: ADENOCARCINOMA, Dose [Carcinogen]: 20 MG/KG BW ONCE, Promoter: NONE USED) 64%, 50%, 22%, not significant; (Carcinogen: N-METHYL-N-NITROSOUREA, 684-93-5, Dose [Inhibitor]: O.O3 MMOL 3/WK STARTING 12 D THROUGH ABOUT 8 MO AFTER FIRST CARCINOGEN DOSE (STUDY DURATION: APPROXIMATELY 8 MO), Route [Inhibitor]: INTRARECTAL, Species: RAT, Strain/Sex: F344/MALE, Target Tissue: Type of Lesion: COLON: ADENOCARCINOMA, Dose [Carcinogen]: 2.5 MG 1/WK FOR 2 WK, Promoter: NONE USED) 3/39 (8%), 6/39 (15%), -88%, not significant; (Carcinogen: N-METHYL-N-NITROSOUREA, 684-93-5, Dose [Inhibitor]: O.O3 MMOL 3/WK STARTING 12 D THROUGH ABOUT 8 MO AFTER FIRST CARCINOGEN DOSE (STUDY DURATION: APPROXIMATELY 8 MO), Route [Inhibitor]: INTRARECTAL, Species: RAT, Strain/Sex: F344/MALE, Target Tissue: Type of Lesion: COLON: ADENOMA, Dose [Carcinogen]: 2.5 MG 1/WK FOR 2 WK, Promoter: NONE USED) 11/39 (28%), 23/39 (59%), -111%, p<0.05; (Carcinogen: N-METHYL-N-NITROSOUREA, 684-93-5, Dose [Inhibitor]: O.O3 MMOL 3/WK STARTING 15 D PRIOR TO THROUGH ABOUT 8 MO AFTER FIRST CARCINOGEN DOSE (STUDY DURATION: APPROXIMATELY 8 MO, Route [Inhibitor]: INTRARECTAL, Species: RAT, Strain/Sex: F344/MALE, Target Tissue: Type of Lesion: COLON: ADENOCARCINOMA, Dose [Carcinogen]: 2.5 MG 1/WK FOR 2 WK, Promoter: NONE USED) 3/39 (8%), 5/39 (13%), -63%, not significant. Moreover, the “tumour outcome (control, treated, inhibition, significance)” value was 11/39 (28%), 14/39 (36%), -29%, not significant (Carcinogen: N-METHYL-N-NITROSOUREA, 684-93-5, Dose [Inhibitor]: O.O3 MMOL 3/WK STARTING 15 D PRIOR TO THROUGH ABOUT 8 MO AFTER FIRST CARCINOGEN DOSE (STUDY DURATION: APPROXIMATELY 8 MO, Route [Inhibitor]: INTRARECTAL, Species: RAT, Strain/Sex: F344/MALE, Target Tissue: Type of Lesion: COLON: ADENOMA, Dose [Carcinogen]: 2.5 MG 1/WK FOR 2 WK, Promoter: NONE USED); 18/25 (72%), 21/25 (84%), -17%, not significant (Carcinogen: N-METHYL-N-NITROSUREA, 684-93-5, Dose [Inhibitor]: 0, 782 MG/KG OF CASEIN BASED AIN-76A DIET FOR DURATION OF STUDY BEGINNING 7 D PRIOR TO CARCINOGEN DOSE (STUDY DURATION:, Route [Inhibitor]: ORAL, Species: RAT, Strain/Sex: F344/FEMALE, Target Tissue: Type of Lesion: MAMMARY GLAND: TUMOR, Dose [Carcinogen]: 45 MG/KG BW ONCE AT 50 D OF AGE, Promoter: NONE USED); 7/17 (41%), 8/16 (50%), -22%, not significant (Carcinogen: N-NITROSOBIS(2-OXOPROPLYL)AMINE [60599-38-4], DL-ETHIONINE [67-21-0], L-METHIONINE [63-68-3], Carcinogen: N-NITROSOBIS(2-OXOPROPLYL)AMINE [60599-38-4], DL-ETHIONINE [67-21-0], L-METHIONINE [63-68-3], Dose [Inhibitor]: 0, 0.0015% IN DIET FOR 55 D BEGINNING ON DAY 50, 1 WK POST LAST CARCINOGEN DOSE (STUDY DURATION: 105 D), Route [Inhibitor]: ORAL, Species: HAMSTER, Target Tissue: Type of Lesion: LIVER: INTRAHEPATIC CHOLANGIOCARCINOMA, Dose [Carcinogen]: 50 MG/KG BOP ONCE ON DAY 0, THEN 20 MG/KG TWICE ON DAYS 18 AND 32, 500 MG/KG DL-ETHIONINE 1X/D FOR 4 D BEGINNING ON DAY, Dose [Carcinogen]: 50 MG/KG BOP ONCE ON DAY 0, THEN 20 MG/KG TWICE ON DAYS 18 AND 32, 500 MG/KG DL-ETHIONINE 1X/D FOR 4 D BEGINNING ON DAY, Promoter: CHOLINE-DEFICIENT DIET); 17/17 (100%), 15/16 (94%), 6%, not significant (Carcinogen: N-NITROSOBIS(2-OXOPROPLYL)AMINE [60599-38-4], DL-ETHIONINE [67-21-0], L-METHIONINE [63-68-3], Carcinogen: N-NITROSOBIS(2-OXOPROPLYL)AMINE [60599-38-4], DL-ETHIONINE [67-21-0], L-METHIONINE [63-68-3], Dose [Inhibitor]: 0, 0.0015% IN DIET FOR 55 D BEGINNING ON DAY 50, 1 WK POST LAST CARCINOGEN DOSE (STUDY DURATION: 105 D), Route [Inhibitor]: ORAL, Species: HAMSTER, Target Tissue: Type of Lesion: PANCREATIC DUCT, CARCINOMA, Dose [Carcinogen]: 50 MG/KG BOP ONCE ON DAY 0, THEN 20 MG/KG TWICE ON DAYS 18 AND 32, 500 MG/KG DL-ETHIONINE 1X/D FOR 4 D BEGINNING ON DAY, Dose [Carcinogen]: 50 MG/KG BOP ONCE ON DAY 0, THEN 20 MG/KG TWICE ON DAYS 18 AND 32, 500 MG/KG DL-ETHIONINE 1X/D FOR 4 D BEGINNING ON DAY, Promoter: CHOLINE-DEFICIENT DIET); 7/17 (41%), 13/19 (68%), -68%, not significant (Carcinogen: N-NITROSOBIS(2-OXOPROPLYL)AMINE [60599-38-4], DL-ETHIONINE [67-21-0], L-METHIONINE [63-68-3], Carcinogen: N-NITROSOBIS(2-OXOPROPLYL)AMINE [60599-38-4], DL-ETHIONINE [67-21-0], L-METHIONINE [63-68-3], Dose [Inhibitor]: 0, 0.004% IN DIET FOR 55 D BEGINNING ON DAY 50, 1 WK POST LAST CARCINOGEN DOSE (STUDY DURATION: 105 D), Route [Inhibitor]: ORAL, Species: HAMSTER, Target Tissue: Type of Lesion: LIVER: INTRAHEPATIC CHOLANGIOCARCINOMA, Dose [Carcinogen]: 50 MG/KG BOP ONCE ON DAY 0, THEN 20 MG/KG TWICE ON DAYS 18 AND 32, 500 MG/KG DL-ETHIONINE 1X/D FOR 4 D BEGINNING ON DAY, Dose [Carcinogen]: 50 MG/KG BOP ONCE ON DAY 0, THEN 20 MG/KG TWICE ON DAYS 18 AND 32, 500 MG/KG DL-ETHIONINE 1X/D FOR 4 D BEGINNING ON DAY, Promoter: CHOLINE-DEFICIENT DIET); 17/17 (100%), 19/19 (100%), 0%, not significant (Carcinogen: N-NITROSOBIS(2-OXOPROPLYL)AMINE [60599-38-4], DL-ETHIONINE [67-21-0], L-METHIONINE [63-68-3], Carcinogen: N-NITROSOBIS(2-OXOPROPLYL)AMINE [60599-38-4], DL-ETHIONINE [67-21-0], L-METHIONINE [63-68-3], Dose [Inhibitor]: 0, 0.004% IN DIET FOR 55 D BEGINNING ON DAY 50, 1 WK POST LAST CARCINOGEN DOSE (STUDY DURATION: 105 D), Route [Inhibitor]: ORAL, Species: HAMSTER, Target Tissue: Type of Lesion: PANCREATIC DUCT, CARCINOMA, Dose [Carcinogen]: 50 MG/KG BOP ONCE ON DAY 0, THEN 20 MG/KG TWICE ON DAYS 18 AND 32, 500 MG/KG DL-ETHIONINE 1X/D FOR 4 D BEGINNING ON DAY, Dose [Carcinogen]: 50 MG/KG BOP ONCE ON DAY 0, THEN 20 MG/KG TWICE ON DAYS 18 AND 32, 500 MG/KG DL-ETHIONINE 1X/D FOR 4 D BEGINNING ON DAY, Promoter: CHOLINE-DEFICIENT DIET). Moreover, for the setting “Carcinogen: N-NITROSOBIS(2-OXOPROPLYL)AMINE [60599-38-4], DL-ETHIONINE [67-21-0], L-METHIONINE [63-68-3], Carcinogen: N-NITROSOBIS(2-OXOPROPLYL)AMINE [60599-38-4], DL-ETHIONINE [67-21-0], L-METHIONINE [63-68-3], Dose [Inhibitor]: 0, 0.01% IN DIET FOR 55 D BEGINNING ON DAY 50, 1 WK POST LAST CARCINOGEN DOSE (STUDY DURATION: 105 D), Route [Inhibitor]: ORAL, Species: HAMSTER, Target Tissue: Type of Lesion: LIVER: INTRAHEPATIC CHOLANGIOCARCINOMA, Dose [Carcinogen]: 50 MG/KG BOP ONCE ON DAY 0, THEN 20 MG/KG TWICE ON DAYS 18 AND 32, 500 MG/KG DL-ETHIONINE 1X/D FOR 4 D BEGINNING ON DAY, Dose [Carcinogen]: 50 MG/KG BOP ONCE ON DAY 0, THEN 20 MG/KG TWICE ON DAYS 18 AND 32, 500 MG/KG DL-ETHIONINE 1X/D FOR 4 D BEGINNING ON DAY, Promoter: CHOLINE-DEFICIENT DIET”, the “tumour outcome (control, treated, inhibition, significance)” value was 7/17 (41%), 14/17 (82%), -100%, p<0.05.
